From US11358940B2, “K-Ras modulators” (THE REGENTS OF THE UNIVERSITY OF CALIFORNIA, priority 2017, dated 2022)

Experiments:
[1] = target: T1, Kras4b H95C (1-169) mutant protein (GppNHp-loaded) (Homo sapiens, UniProt P01116, H95C); assay: Disulfide tethering screen, dose response; assay type: binding; settings: FIG. 2
T1 construct: we generated Kras4b H95C (1-169) mutant protein; made in house
Description: Disulfide tethering is a site-directed fragment-based approach to drug-discovery, which allows the screening low-affinity disulfide containing fragments against a native or introduced cysteine residue of a target protein. Fragment binding is reversible, and can be tuned to favor detection of only the strongest bound fragments through the use of increasing concentrations of a reductant (typically β-mecaptoethanol). This binding is not purely driven by reactivity; it is influenced by protein/ligand interactions and is independent of pKa or surface exposure. Bound fragments are detected by mass spectrometry and provide a lead into the drug discovery process.
To target H95 specifically, we generated Kras4b H95C (1-169) mutant protein, and used it (GppNHp-loaded), to search for compounds that could bind to active KRas in close proximity to H95. We performed a tethering screen of a disulfide containing fragment library at the University of California San Francisco.

H95 site of KRas = H95 site of KRas (Homo sapiens, UniProt P01116, H95C); assay: Thermal melting analysis; assay type: binding; settings: FIG. 3
Sequence of H95 site of KRas (P01116 1-188 isoform P01116-2 H95C): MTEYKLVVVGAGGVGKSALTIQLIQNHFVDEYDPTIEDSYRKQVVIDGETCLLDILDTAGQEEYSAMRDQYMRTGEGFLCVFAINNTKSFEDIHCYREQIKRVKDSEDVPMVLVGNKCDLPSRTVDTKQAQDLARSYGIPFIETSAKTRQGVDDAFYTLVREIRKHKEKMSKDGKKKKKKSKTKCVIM

[2] = target: farnesylated and carboxymethylated KRas (FMe-KRas) (Homo sapiens, UniProt P01116); assay: MALDI-TOF analysis of labeling of fully processed KRas; assay type: binding
Sequence of farnesylated and carboxymethylated KRas (FMe-KRas) (P01116 2-185 isoform P01116-2 limits assumed): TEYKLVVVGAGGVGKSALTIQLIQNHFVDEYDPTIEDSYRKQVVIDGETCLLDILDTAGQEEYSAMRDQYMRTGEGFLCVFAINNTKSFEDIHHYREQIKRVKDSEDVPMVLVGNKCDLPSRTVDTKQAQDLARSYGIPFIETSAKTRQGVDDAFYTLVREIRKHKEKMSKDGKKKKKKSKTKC

KRas H95C (1-169) = target: T2, KRas H95C (1-169) (Homo sapiens, UniProt P01116, H95C); assay: MALDI-TOF analysis of KRas H95C reacted with compound; assay type: binding; settings: reacted for 24 h
T2 construct: we generated Kras4b H95C (1-169) mutant protein; made in house
T2 sequence (P01116 1-169 isoform P01116-2 H95C): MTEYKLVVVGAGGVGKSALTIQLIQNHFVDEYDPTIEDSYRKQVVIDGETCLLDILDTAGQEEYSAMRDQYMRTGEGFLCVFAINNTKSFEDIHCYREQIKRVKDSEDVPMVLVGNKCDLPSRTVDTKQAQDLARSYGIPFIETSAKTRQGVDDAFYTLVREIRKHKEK
Description: Next, we reacted all three epoxides synthesized (structures depicted in FIG. 10A) with KRas H95C (1-169) to investigate reactivity at that site.
Single enantiomers of FNL-0012, compounds […] and FNL-0044 (R), then corresponding single enantiomers of FNL-0030, compounds FNL-0043 (S) and FNL-0045 (R), were synthesized (FIG. 14A). These enantiomers were investigated using a MALDI-TOF MS screen using KRAS4b (1-169) H95C, and also cell-based assays.

[3] = test system: HupT4 pancreas carcinoma cells; assay: Growth arrest in HupT4 cells; assay type: cell-based; settings: 24 h
Procedure: (§1) Cell viability in the presence of compounds (discussed in examples above) was measured using CellTiter-Glo (Promega). Cells were plated in black-walled 384-well plates (Greiner, 781091) at densities in accordance with their doubling time (for MEFs typically 1,000 cells/well in 20 μl), using the Multidrop Combi Reagent Dispenser (Thermo). They were then incubated overnight at 37° C. in a humidified atmosphere of 5% CO2 prior to compound addition.
(§2) Compound and dimethylsulfoxide (DMSO) addition to microplates was performed using the Access Laboratory Workstation (Labcyte) and Echo 555 (Labcyte) liquid handler. Source plates with compounds and DMSO were prepared and the Echo 555 was used to transfer 50 nL of compound, DMSO, or both to the appropriate wells. […] of complete culture medium was added to all wells of the microplate after compound addition. The highest final concentration in each assay was 100 μM or 50 μM with between seven to 12 dilutions. The final DMSO concentration in all wells was 0.2%.
[…] All conditions were done in triplicates and experiments performed at least thrice. Cellular ATP levels (an indicator of cell count) were determined with CellTiter-Glo (CTG, Promega G7573) luminescence assay, using an EnVision Plate Reader (PerkinElmer).
Plates were harvested at two time points. […] Growth inhibition was calculated by: […]

[4] = test system: KRAS4b G12D, KRAS4b G12V, HRas WT/P53-, and SUIT-2; assay: Cell proliferation experiments with analogues of FNL-0045; assay type: cell-based; settings: FIG. 15B
Procedure: as §1
as §2, with “The highest final concentration in each assay was 100 μM or 50 μM with between seven to 12 dilutions. The final DMSO concentration in all wells was 0.2%.” left out
Cells were incubated with compounds for 72 h. […] Cellular ATP levels (an indicator of cell count) were determined with CellTiter-Glo (CTG, Promega G7573) luminescence assay, using an EnVision Plate Reader (PerkinElmer).
Plates were harvested at two time points. […] After 72 h incubation, the compound treated plates were harvested using CTG reagent and luminescence read using the EnVision giving control growth (C) and compound treated well (T72) measurements. Growth inhibition was calculated by: […]

T1 sequence (P01116 1-169 isoform P01116-2 H95C): as above

Compound | binding at H95 site of KRas in dose response experiments [1] | shift in Tm upon fragment binding (H95 site of KRas) | further results
Cc1ccc(S(=O)(=O)c2cn(CCSSCCN(C)C)nn2)cc1 [compound 966844] | strong binders | significant shifts in Tm | –
CN(C)CCSSCCNC(=O)Cc1ccc(Cl)c(Cl)c1 [compound 917105] | strong binders | significant shifts in Tm | –
CN(C)CCSSCCn1cc(CNC(=O)c2n[nH]c3ccccc23)nn1 [compound 966854] | strong binders | significant shifts in Tm | –
O=C(Cc1ccc(Cl)c(Cl)c1)NCC1CO1 (stereo not shown) [FNL-0010] | – | – | covalent labeling of FMe-KRas [2]: did not label; covalent modification of C95 (KRas H95C (1-169)): covalently labeled C95; growth arrest / cell proliferation [3]: did not affect cell proliferation
Cn1nc(C(=O)NCc2cn(C[C@@H]3CO3)nn2)c2ccccc21 [FNL-0088] | – | – | proliferation assay, R enantiomer compared with S enantiomer FNL-0090 [4]: compared favorably
